According to ChEMBL document CHEMBL1201862, “PubChem BioAssay data set” (2004):
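Dose response: 5 concentrations. Exposure: 48 h. Format: 96-well plates. Endpoint: linear interpolation; highest concentration if not reached. GI50 marks 50% less growth.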 Calls of active or inactive are those of the source. Rule as the data show it: active = GI50 up to about 1.1 µM and inactive = higher.

How the values were obtained:
Test in all cases: NCI tumour cell line growth inhibition, 48 h
OVCAR-4 = tested on: OVCAR-4
HOP-62 = tested on: HOP-62
SK-MEL-28 = tested on: SK-MEL-28
M14 = tested on: M14
CCRF-CEM = tested on: CCRF-CEM
UO-31 = tested on: UO-31
MDA-N = tested on: MDA-N
MDA-MB-435 = tested on: MDA-MB-435
HCC 2998 = tested on: HCC 2998
EKVX = tested on: EKVX
SR = tested on: SR
UACC-257 = tested on: UACC-257
NCI-H522 = tested on: NCI-H522
HCT-116 = tested on: HCT-116
MDA-MB-231 = tested on: MDA-MB-231
T47D = tested on: T47D
LOX IMVI = tested on: LOX IMVI
NCI-H226 = tested on: NCI-H226
IGROV-1 = tested on: IGROV-1
A549 = tested on: A549
SF-268 = tested on: SF-268
OVCAR-5 = tested on: OVCAR-5
A498 = tested on: A498
SN12C = tested on: SN12C
SK-MEL-5 = tested on: SK-MEL-5
OVCAR-3 = tested on: OVCAR-3
K562 = tested on: K562
ACHN = tested on: ACHN
MCF7 = tested on: MCF7
SNB-75 = tested on: SNB-75
SW-620 = tested on: SW-620
SK-MEL-2 = tested on: SK-MEL-2
DU-145 = tested on: DU-145
786-0 = tested on: 786-0
SK-OV-3 = tested on: SK-OV-3
KM12 = tested on: KM12
TK-10 = tested on: TK-10
RPMI-8226 = tested on: RPMI-8226
BT-549 = tested on: BT-549
SNB-19 = tested on: SNB-19
COLO 205 = tested on: COLO 205
HT-29 = tested on: HT-29
CAKI-1 = tested on: CAKI-1
Hs-578T = tested on: Hs-578T
NCI-H460 = tested on: NCI-H460
PC-3 = tested on: PC-3
HCT-15 = tested on: HCT-15
RXF 393 = tested on: RXF 393
HOP-92 = tested on: HOP-92
UACC-62 = tested on: UACC-62
Malme-3M = tested on: Malme-3M
U-251 = tested on: U-251
OVCAR-8 = tested on: OVCAR-8
SF-295 = tested on: SF-295
NCI-H23 = tested on: NCI-H23
HL-60 = tested on: HL-60
NCI/ADR-RES = tested on: NCI/ADR-RES
MOLT-4 = tested on: MOLT-4
SF-539 = tested on: SF-539

## Nc1ccccc1.O=P(O)(O)c1ccccc1
OVCAR-4
  GI50: > 100 µM (inactive)
HOP-62
  GI50: > 100 µM (inactive)
SK-MEL-28
  GI50: > 100 µM (inactive)
M14
  GI50: > 100 µM (inactive)
CCRF-CEM
  GI50: > 100 µM (inactive)
UO-31
  GI50: > 100 µM (inactive)
MDA-N
  GI50: > 100 µM (inactive)
MDA-MB-435
  GI50: > 100 µM (inactive)
HCC 2998
  GI50: > 100 µM (inactive)
EKVX
  GI50: > 100 µM (inactive)
SR
  GI50: > 100 µM (inactive)
UACC-257
  GI50: > 100 µM (inactive)
NCI-H522
  GI50: > 100 µM (inactive)
HCT-116
  GI50: > 100 µM (inactive)
MDA-MB-231
  GI50: > 100 µM (inactive)
T47D
  GI50: > 100 µM (inactive)
LOX IMVI
  GI50: > 100 µM (inactive)
NCI-H226
  GI50: > 100 µM (inactive)
IGROV-1
  GI50: > 100 µM (inactive)
A549
  GI50: > 100 µM (inactive)
SF-268
  GI50: > 100 µM (inactive)
OVCAR-5
  GI50: > 100 µM (inactive)
A498
  GI50: > 100 µM (inactive)
SN12C
  GI50: > 100 µM (inactive)
SK-MEL-5
  GI50: > 100 µM (inactive)
OVCAR-3
  GI50: > 100 µM (inactive)
K562
  GI50: > 100 µM (inactive)
ACHN
  GI50: > 100 µM (inactive)
MCF7
  GI50: > 100 µM (inactive)
SNB-75
  GI50: 17.6 µM (inactive)
SW-620
  GI50: > 100 µM (inactive)
SK-MEL-2
  GI50: > 100 µM (inactive)
DU-145
  GI50: > 100 µM (inactive)
786-0
  GI50: > 100 µM (inactive)
SK-OV-3
  GI50: > 100 µM (inactive)
KM12
  GI50: > 100 µM (inactive)
TK-10
  GI50: > 100 µM (inactive)
RPMI-8226
  GI50: > 100 µM (inactive)
BT-549
  GI50: > 100 µM (inactive)
SNB-19
  GI50: > 100 µM (inactive)
COLO 205
  GI50: > 100 µM (inactive)
HT-29
  GI50: > 100 µM (inactive)
CAKI-1
  GI50: > 100 µM (inactive)
Hs-578T
  GI50: > 100 µM (inactive)
NCI-H460
  GI50: > 100 µM (inactive)
PC-3
  GI50: > 100 µM (inactive)
HCT-15
  GI50: > 100 µM
RXF 393
  GI50: > 100 µM (inactive)
HOP-92
  GI50: > 100 µM (inactive)
UACC-62
  GI50: > 100 µM (inactive)
Malme-3M
  GI50: > 100 µM (inactive)
U-251
  GI50: > 100 µM (inactive)
OVCAR-8
  GI50: > 100 µM (inactive)
SF-295
  GI50: > 100 µM (inactive)
NCI-H23
  GI50: > 100 µM (inactive)
HL-60
  GI50: > 100 µM (inactive)
NCI/ADR-RES
  GI50: > 100 µM (inactive)

## NC(=S)N/N=C\c1ccc(OCc2cccc(COc3ccc(/C=N/NC(N)=S)cc3)n2)cc1
OVCAR-4
  GI50: 44.2 µM (inactive)
HOP-62
  GI50: > 100 µM (inactive)
SK-MEL-28
  GI50: 22.9 µM (inactive)
M14
  GI50: 43.4 µM (inactive)
CCRF-CEM
  GI50: 45.7 µM (inactive)
UO-31
  GI50: 15.3 µM (inactive)
MDA-N
  GI50: 56.8 µM (inactive)
MDA-MB-435
  GI50: 63.8 µM (inactive)
EKVX
  GI50: > 100 µM (inactive)
SR
  GI50: 38.7 µM (inactive)
UACC-257
  GI50: 20.2 µM (inactive)
NCI-H522
  GI50: 2.88 µM (inactive)
HCT-116
  GI50: 12 µM (inactive)
MDA-MB-231
  GI50: 5.25 µM (inactive)
MOLT-4
  GI50: 34.7 µM (inactive)
T47D
  GI50: 0.164 µM (active)
LOX IMVI
  GI50: > 100 µM (inactive)
NCI-H226
  GI50: > 100 µM (inactive)
IGROV-1
  GI50: 14.8 µM (inactive)
A549
  GI50: > 100 µM (inactive)
SF-268
  GI50: > 100 µM (inactive)
OVCAR-5
  GI50: 17.3 µM (inactive)
A498
  GI50: > 100 µM (inactive)
SN12C
  GI50: > 100 µM (inactive)
SK-MEL-5
  GI50: 5.06 µM (inactive)
OVCAR-3
  GI50: 32.7 µM (inactive)
K562
  GI50: 18.6 µM (inactive)
ACHN
  GI50: 9.53 µM (inactive)
MCF7
  GI50: 32.5 µM (inactive)
SNB-75
  GI50: > 100 µM (inactive)
SW-620
  GI50: > 100 µM (inactive)
SK-MEL-2
  GI50: 12.5 µM (inactive)
SF-539
  GI50: > 100 µM (inactive)
DU-145
  GI50: 34.8 µM (inactive)
786-0
  GI50: > 100 µM (inactive)
SK-OV-3
  GI50: > 100 µM (inactive)
KM12
  GI50: > 100 µM (inactive)
TK-10
  GI50: 76.7 µM (inactive)
RPMI-8226
  GI50: 4.33 µM (inactive)
BT-549
  GI50: 2.39 µM (inactive)
SNB-19
  GI50: > 100 µM (inactive)
COLO 205
  GI50: 5.73 µM (inactive)
HT-29
  GI50: > 100 µM (inactive)
CAKI-1
  GI50: 17 µM (inactive)
Hs-578T
  GI50: > 100 µM (inactive)
NCI-H460
  GI50: > 100 µM (inactive)
PC-3
  GI50: 21.6 µM (inactive)
HCT-15
  GI50: 43.7 µM
RXF 393
  GI50: 1.63 µM (inactive)
HOP-92
  GI50: > 100 µM (inactive)
Malme-3M
  GI50: 86.5 µM (inactive)
U-251
  GI50: 45.4 µM (inactive)
OVCAR-8
  GI50: > 100 µM (inactive)
SF-295
  GI50: > 100 µM (inactive)
NCI-H23
  GI50: 69.3 µM (inactive)
HL-60
  GI50: 10.5 µM (inactive)
NCI/ADR-RES
  GI50: > 100 µM (inactive)

## O=C(O)C12CC3(C(=O)O)CC(C(=O)O)(CC(C(=O)O)(C1)C3=O)C2=O
OVCAR-4
  GI50: > 100 µM (inactive)
HOP-62
  GI50: > 100 µM (inactive)
SK-MEL-28
  GI50: > 100 µM (inactive)
M14
  GI50: > 100 µM (inactive)
CCRF-CEM
  GI50: > 100 µM (inactive)
UO-31
  GI50: > 100 µM (inactive)
MDA-N
  GI50: > 100 µM (inactive)
MDA-MB-435
  GI50: > 100 µM (inactive)
EKVX
  GI50: > 100 µM (inactive)
SR
  GI50: > 100 µM (inactive)
UACC-257
  GI50: > 100 µM (inactive)
NCI-H522
  GI50: > 100 µM (inactive)
HCT-116
  GI50: > 100 µM (inactive)
MDA-MB-231
  GI50: > 100 µM (inactive)
MOLT-4
  GI50: > 100 µM (inactive)
T47D
  GI50: > 100 µM (inactive)
LOX IMVI
  GI50: > 100 µM (inactive)
NCI-H226
  GI50: > 100 µM (inactive)
IGROV-1
  GI50: > 100 µM (inactive)
A549
  GI50: > 100 µM (inactive)
SF-268
  GI50: > 100 µM (inactive)
OVCAR-5
  GI50: > 100 µM (inactive)
A498
  GI50: > 100 µM (inactive)
SN12C
  GI50: > 100 µM (inactive)
SK-MEL-5
  GI50: > 100 µM (inactive)
OVCAR-3
  GI50: > 100 µM (inactive)
K562
  GI50: > 100 µM (inactive)
ACHN
  GI50: > 100 µM (inactive)
MCF7
  GI50: > 100 µM (inactive)
SNB-75
  GI50: > 100 µM (inactive)
SW-620
  GI50: > 100 µM (inactive)
SK-MEL-2
  GI50: > 100 µM (inactive)
DU-145
  GI50: > 100 µM (inactive)
786-0
  GI50: > 100 µM (inactive)
SK-OV-3
  GI50: > 100 µM (inactive)
KM12
  GI50: > 100 µM (inactive)
TK-10
  GI50: > 100 µM (inactive)
RPMI-8226
  GI50: > 100 µM (inactive)
BT-549
  GI50: > 100 µM (inactive)
SNB-19
  GI50: > 100 µM (inactive)
COLO 205
  GI50: > 100 µM (inactive)
HT-29
  GI50: > 100 µM (inactive)
CAKI-1
  GI50: > 100 µM (inactive)
Hs-578T
  GI50: > 100 µM (inactive)
NCI-H460
  GI50: > 100 µM (inactive)
PC-3
  GI50: > 100 µM (inactive)
HCT-15
  GI50: > 100 µM
RXF 393
  GI50: > 100 µM (inactive)
HOP-92
  GI50: > 100 µM (inactive)
UACC-62
  GI50: > 100 µM (inactive)
Malme-3M
  GI50: > 100 µM (inactive)
U-251
  GI50: > 100 µM (inactive)
OVCAR-8
  GI50: > 100 µM (inactive)
SF-295
  GI50: > 100 µM (inactive)
NCI-H23
  GI50: > 100 µM (inactive)
NCI/ADR-RES
  GI50: > 100 µM (inactive)
